Measurements taken from patent US9345677B2, “Compositions, methods and kits relating to HER-2 cleavage” (Incyte Corporation, priority 2003, dated 2016).

How the values were obtained:
Her-2 sheddase = assay: Her-2 ECD ELISA of BT474 culture supernatants (Her-2 sheddase inhibition); type: cell-based, human
Description: BT474 cells were seeded in 100 μL of RPMI medium containing 10% FCS+10 μg/ml insulin in 96 well plates at 2×10^4 cells/well. The cells were incubated overnight at 37° C. The following morning, the media was removed and 100 μL of fresh media with or without compound was added back. The cells were incubated for about 72 hours at 37° C. After about 72 hours, the supernatants were removed. The samples were diluted 1:10 and analyzed using a commercially available Her-2 ELISA kit per manufacturer's instructions (Oncogene Research, catalog #QIA 10).
These inhibitors were added, at varying concentrations, to cultures of BT474 cells, a Her-2 overexpressing breast cancer cell line known to enzymatically process cell surface Her-2 (p185) and release the extracellular domain (ECD) into the culture supernatant, i.e., shedding of ECD. After 72 hours, cell culture supernatants were harvested and assayed for Her-2 ECD content using an ELISA assay.

MMP12 = MMP12 (Homo sapiens, UniProt P39900); assay: MMP12 fluorogenic peptide biochemical assay
Excerpt: (§1) Source of enzymes for biochemical assays: Except for ADAM17 and MT1-MMP, all recombinant human MMPs and ADAMs were obtained from R&D Systems (Minneapolis, Minn.). […] MT1-MMP was obtained from US Biological (Swampscott, Mass.) with a catalog number of M2429. Porcine ADAM17 was purified in house from porcine spleen.
(§2) Substrates for biochemical assays: Fluorogenic Peptide substrate, (7-methoxycoumarin-4-yl)acetyl-Pro-Leu-Gly-Leu-(3-[2,4-dinitrophenyl]-L-2,3-diaminopropionyl)-Ala-Arg-NH2 (SEQ ID NO: 46), was obtained from R&D Systems (Minneapolis, Minn.) with a catalog number of ES001. It was used as substrate for MMP1, MMP2, MMP7, MMP8, MMP9, MMP12, MMP13, and MT1-MMP. Fluorogenic Peptide substrate, (7-methoxycoumarin-4-yl)acetyl-Arg-Pro-Lys-Pro-Val-Glu-Nva-Trp-Arg-Lys(2,4-dinitrophenyl)-NH2 (SEQ ID NO: 47), was obtained from R&D Systems with a catalog number of ES002. It was used as substrate for MMP3 and MMP10. […]
(§3) In general, 5 mM compound stock was prepared in DMSO. […] The plate was read on a plate reader with excitation of 320 nm and emission of 405 nm. Percentage of inhibition was calculated for each concentration and IC50 value was generated from curve fitting. […]

MMP2 = target: T1, MMP2 (Homo sapiens, UniProt P08253); assay: MMP2 fluorogenic peptide biochemical assay
T1 construct: purchased R&D Systems 902-MP
T1 sequence (P08253 110-660): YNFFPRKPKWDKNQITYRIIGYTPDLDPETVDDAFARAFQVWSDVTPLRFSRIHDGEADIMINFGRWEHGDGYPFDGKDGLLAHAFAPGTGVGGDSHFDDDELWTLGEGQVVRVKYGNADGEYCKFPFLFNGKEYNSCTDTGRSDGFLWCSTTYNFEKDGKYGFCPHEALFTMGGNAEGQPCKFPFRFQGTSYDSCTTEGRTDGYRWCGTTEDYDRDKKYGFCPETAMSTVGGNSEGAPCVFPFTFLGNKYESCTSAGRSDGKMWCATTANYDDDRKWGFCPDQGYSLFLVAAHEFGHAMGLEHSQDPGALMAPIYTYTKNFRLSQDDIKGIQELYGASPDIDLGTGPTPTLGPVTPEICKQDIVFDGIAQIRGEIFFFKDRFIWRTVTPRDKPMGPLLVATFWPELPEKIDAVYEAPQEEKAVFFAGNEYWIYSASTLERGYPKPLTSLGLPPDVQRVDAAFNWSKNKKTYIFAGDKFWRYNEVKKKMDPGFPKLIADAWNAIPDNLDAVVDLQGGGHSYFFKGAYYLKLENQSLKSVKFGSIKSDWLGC

MMP3 = target: T2, MMP3 (Homo sapiens, UniProt P08254); assay: MMP3 fluorogenic peptide biochemical assay
T2 construct: purchased R&D Systems 513-MP
Excerpt: as §1, §2, §3

BT474 cells = assay: Cell proliferation assay (cell counting, BrdU incorporation); type: cell-based, human; details: Her-2 overexpressing BT474 cells
Description: Proliferation assays were routinely performed with two protocols: cell counting and BrdU incorporation assay. For cell counting, cells (1×10^5) were seeded in each well of 12 well plates and cultured overnight. Then, cells were treated for 6 days with drugs and compounds as indicated in individual experiments. Culture media were replaced with fresh media containing the same concentrations of drugs and compounds after the first 3 days of treatment. Viable cells were counted with hemacytometers immediately after trypan blue staining.
The BrdU incorporation assay was performed using a colorimetric Cell Proliferation ELISA kit per manufacturer's instruction (#1647229, Roche Molecular Biochemicals), measuring DNA synthesis in proliferating cells. Briefly, cells (5−10×10^3) were seeded in each well of 96 well plates and cultured overnight. […] Finally, 100 μl/well of substrate solution was added and the results were obtained using a microplate reader (Spectra Max PLUS, Molecular Devices) during color development. Multiple readings at various time points were obtained and results in the linear range of the assay were obtained. […]
After varying periods of cell culture (2-6 days), the cell cultures were harvested and cell growth was assessed by cell count and BRdU incorporation using standard protocols.

T2 sequence (P08254 100-477): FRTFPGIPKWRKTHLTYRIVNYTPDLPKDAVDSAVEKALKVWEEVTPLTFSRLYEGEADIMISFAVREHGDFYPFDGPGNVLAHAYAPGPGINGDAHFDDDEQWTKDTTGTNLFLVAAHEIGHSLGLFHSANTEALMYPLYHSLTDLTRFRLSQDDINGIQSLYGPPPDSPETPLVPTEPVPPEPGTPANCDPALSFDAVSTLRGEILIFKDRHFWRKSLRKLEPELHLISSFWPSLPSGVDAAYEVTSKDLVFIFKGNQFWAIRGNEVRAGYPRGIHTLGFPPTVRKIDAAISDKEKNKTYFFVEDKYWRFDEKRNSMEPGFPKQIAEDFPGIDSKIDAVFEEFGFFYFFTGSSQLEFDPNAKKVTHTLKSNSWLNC
Sequence of MMP12 (P39900 106-470): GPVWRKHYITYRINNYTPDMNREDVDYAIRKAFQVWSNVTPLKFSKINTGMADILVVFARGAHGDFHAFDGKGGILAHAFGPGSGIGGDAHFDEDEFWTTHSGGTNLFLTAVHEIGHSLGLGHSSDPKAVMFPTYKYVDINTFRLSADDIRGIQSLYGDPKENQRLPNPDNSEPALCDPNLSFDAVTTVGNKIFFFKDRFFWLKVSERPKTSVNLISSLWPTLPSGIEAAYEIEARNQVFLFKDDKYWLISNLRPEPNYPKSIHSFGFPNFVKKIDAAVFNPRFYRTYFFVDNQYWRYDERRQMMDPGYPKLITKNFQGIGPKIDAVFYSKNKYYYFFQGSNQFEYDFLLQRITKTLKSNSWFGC

IC50 (Her-2 sheddase): 198 to 250 nM | IC50 (MMP12): 584 nM | MMP2 activity (MMP2): inactive | MMP3 activity (MMP3): inactive
SMILES: Cc1cc([N+](=O)[O-])ccc1N1CCN(C(=O)[C@@H]2[C@@H](C(=O)NO)CC3(CC3)CN2C)CC1 [Compound 5, (6S,7S)-N-hydroxy-5-methyl-6-{[4-(2-methyl-4-nitrophenyl)piperazin-1-yl]-carbonyl}-5-azaspiro[2.5]octane-7-carboxamide]
effect on antiproliferative activity of a suboptimal dose of Herceptin (BT474 cells): synergistically enhances
